The source of these data is patent EP2576536B1, “HAEMATOPOIETIC-PROSTAGLANDIN D2 SYNTHASE INHIBITORS” (priority 2010, dated 2011).

One series deals with T1, H-PGDS (Homo sapiens, UniProt O60760).
T1 construct: made in house; host or cells: Escherichia coli BL21 DE3
The experiment in a line: H-PGDS catalyzed conjugation of GSH and CDNB, enzyme inhibition assay. The class given is biochemical. The conditions noted are these: for inhibition at 50 µM / I[50]: percent inhibition at 50 µM, Mean ± Standard Error of triplicate experiments; for inhibition at 50 µM: read-out: I[50]; for IC50: IC50 ± Standard Error of the Mean, triplicate experiments. As to the method: H-PGDS was expressed and purified as described previously (Jowsey, 2001). Briefly, H-PGDS was expressed in Escherichia coli strain BL21 DE3 transformed with the pET17b HPGDS expression construct, grown overnight at 37 °C in 250 ml of Luria-Bertani medium supplemented with 100 µg/ml ampicillin. After 24 h, without induction, bacteria were harvested by centrifugation at 5000 g for 20 min at 4 °C; cell pellets were kept at -70 °C until required. Cells were resuspended in 25 ml of ice-cold phosphate buffered saline (PBS), pH 7.4, containing 1 mM DTT, 0.5 % Triton X-100 and EDTA-free protease inhibitor tablets (F.Hoffmann-La Roche, Dee Why, NSW, Australia), and incubated with rotation for 30 mins at 4 °C. Cells were then lysed by sonication at 90-100 W over 3 x 1 min intervals, while incubated on ice; the lysate clarified by centrifugation at 18000 g for 10 min at 4 °C.
The supernatant was then applied to a GSTPrep FF 16/10 column pre-equilibrated with PBS, pH 7.4, and 1 mM DTT, at 0.4 ml/minute using an AKTA explorer 100 (GE Healthcare, Rydalmere, NSW, Australia), then washed with 5 column volumes of the same buffer at 1 ml/min. Bound H-PGDS was eluted in 5 column volumes of 15 mM reduced glutathione in 50 mM Tris, pH 9.0, at 0.5 ml/min, and dialysed against 100 volumes of 5 mM TrisCl, pH 8.0. The protein was concentrated to 20 mg/ml, as determined by the method of Bradford (Bradford, 1976) using an Amicon Ultra-4 centrifugal filter device (Millipore, North Ryde, NSW, Australia) following manufacturers recommendations. Glycerol was added to a final concentration of 10 % (v/v) prior to storage at -20 °C.
The H-PGDS catalyzed conjugation of GSH and 1-chloro-2,4-dinitrobenzene (CDNB) was used as the biochemical assay for enzyme inhibition. Reactions were performed in 96 well plate format, and product formation was followed at A340 nm over a 10 min internal at 25 °C using a POWERWAVE XS microplate scanning spectrophotometer (Bio-Tek Instruments, Winooski, VT, USA). Reactions were performed in 0.1 M Tris HCl, pH 8.0 containing 2 mM MgCl2, 1 mM CDNB, 2 mM GSH, 2.5 ng/µl purified H-PGDS and 10 % (v/v) ethanol in a 200 µl reaction volume. IC50 values were calculated from rates of conjugation activity determined at eight concentration points bracketing the IC50, where compound solubility allowed, and were corrected for background activity at the same solvent concentrations. All compounds were made up in 100 % DMSO and diluted with 0.1 M Tris HCl, pH 8.0 with 2 mM MgCl2. I50 and IC50 values were determined at a final DMSO composition of no greater than 4 % v/v for all compounds. Non-linear regression analysis and IC50 calculations were performed using GraphPad Prism version 4.0c.
IC50 values were calculated from triplicate experiments, and are presented as IC50 ± Standard Error of the Mean.

Series [1] has as its system mouse primary bone marrow-derived macrophages (BMM). The experiment in a line: LPS-inducible PGE2, 6-keto PGF1α and TXB2 production from BMM (EIA), specificity. The conditions noted are these: 24 h, 0-100 µM. The format is cell-based. As to the method:
The human megakaryocytic cell line MEG-01S was obtained from the American Type Culture Collection. MEG-01S were maintained in the same media as for BMM, supplemented with 1 mM Sodium Pyruvate (Invitrogen).
BMM were seeded overnight at 2 x 10^5 cells/ml in 24 well plates before treatment with compound at either 10 µM or 0.1 - 100 µM for 24 h in the presence or absence of lipopolysaccharide (LPS) from Salmonella Minnesota (Sigma-Aldrich) at a final concentration of 10 ng/ml. MEG-01S were seeded at 2 x 10^5 cells/ml and stimulated with PMA (Phorbol 12-myristate 13-acetate) (Sigma-Aldrich) at a final concentration of 0.1 µM for 16 h.

The test system of series [2] is MEG-01S human megakaryocytes. The experiment in a line: A23187-inducible PGD2 production in PMA-differentiated MEG-01S (EIA). The class given is cell-based. Particulars: at 100 µM (Figure 3A). As to the method:
(§1) All bone marrow-derived macrophages (BMM) were obtained by culturing bone marrow cells from the femurs of 6 to 8 week old C57BL/6 male mice in RPMI 1640 medium (Invitrogen Life Technologies, Carlsbad, CA, USA) supplemented with 10 % Fetal calf serum (Invitrogen) 20 U/ml penicillin and 20 µg/ml streptomycin (Invitrogen), 2 mM L-glutamine (Glutamax-1, Invitrogen) in the presence of 10^4 U/ml (100 ng/mL) recombinant human CSF-1 (a gift from Chiron, Emeryville, CA) on bacteriological plastic plates for 7 days. The human megakaryocytic cell line MEG-01S was obtained from the American Type Culture Collection. MEG-01S were maintained in the same media as for BMM, supplemented with 1 mM Sodium Pyruvate (Invitrogen).
BMM were seeded overnight at 2 x 10^5 cells/ml in 24 well plates before treatment with compound at either 10 µM or 0.1 - 100 µM for 24 h in the presence or absence of lipopolysaccharide (LPS) from Salmonella Minnesota (Sigma-Aldrich) at a final concentration of 10 ng/ml. […] Supernatants were collected and samples were analysed for PGD2 using Prostaglandin D2 Mox Express EIA kits, PGE2 using Prostaglandin E2 Express EIA kits, the prostacyclin derivative 6-keto PGF1α using the 6-keto Prostaglandin F1α EIA Kit and the Thromboxane A2 derivative TXB2 using the Thromboxane B2 Express EIA kit (Cayman Chemical) according to the manufacturer's instructions. […]

Another series relates to BMM. The experiment in a line: BMM cell viability by MTT assay. The format is cell-based, mouse. Particulars: 10, 30, 100 µM, LPS, 24 h (Figure 1B). As to the method:
as §1
Known inhibitors 1 and 2, along with compound 3, were used to treat BMM at three doses (10, 30, 100 µM) in the presence of LPS for 24 h and cell viability was measured by MTT assay. BMM were seeded at 1 x 10^5 cells/well in 96 well plates and treated for 24 h with LPS (10 ng/ml) and compounds at 10, 30 and 100 µM. MEG-01S were PMA differentiated overnight before compounds were added for a further 24 h at 10, 30 and 100 µM. Cell viability was measured by MTT (Sigma-Aldrich) assay as described previously (Irvine, FASEB J, 2006).
(Tetrazolium dyes change colour on reduction, which living cells bring about.)

The subject of another series is MEG-01S. The experiment in a line: MEG-01S cell viability by MTT assay. The format is cell-based, human. The conditions noted are these: 24 h treatment, 0-100 µM (Figure 3B). As to the method: as §1
Known inhibitors 1 and 2, along with compound 3, were used to treat BMM at three doses (10, 30, 100 µM) in the presence of LPS for 24 h and cell viability was measured by MTT assay. BMM were seeded at 1 x 10^5 cells/well in 96 well plates and treated for 24 h with LPS (10 ng/ml) and compounds at 10, 30 and 100 µM. […] Cell viability was measured by MTT (Sigma-Aldrich) assay as described previously (Irvine, FASEB J, 2006).
The effect of the compounds on MEG-01S cell viability was measured by MTT assay after 24 h treatment across the concentration range 0 - 100 µM of compounds (Figure 3B). […]

T1 sequence (O60760 whole entry): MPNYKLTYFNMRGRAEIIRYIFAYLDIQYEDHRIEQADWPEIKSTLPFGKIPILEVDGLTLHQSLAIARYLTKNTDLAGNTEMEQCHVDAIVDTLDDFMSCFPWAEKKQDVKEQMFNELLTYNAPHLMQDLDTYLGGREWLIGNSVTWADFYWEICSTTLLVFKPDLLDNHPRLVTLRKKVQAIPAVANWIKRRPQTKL

Regarding `O=C(c1ccc(-c2cccs2)nc1)N1CCc2ccccc2C1` [Compound 6, (3,4-dihydroisoquinolin-2(1H)-yl)(6-(thiophen-2-yl)pyridin-3-yl)methanone], the inhibition at 50 µM at H-PGDS was found to be 72.3 ± 1.5%. For the compound `N#Cc1ccc(-c2ccc(C(=O)N[C@@H](Cc3ccccc3)C(N)=O)cn2)s1` [Compound 20], the “I[50]” value on H-PGDS is reported as 67.9 ± 1.6%. With `CC(=O)C1(c2ccccc2)CCN(C(=O)c2ccc(-c3cccs3)nc2)CC1` [Compound 8, 1-(4-phenyl-1-(6-(thiophen-2-yl)nicotinoyl)piperidin-4-yl)ethanone], the inhibition at 50 µM at H-PGDS came to 58.7 ± 0.8%. For the compound `Cc1cc(-c2ccc(C(=O)N[C@@H](Cc3ccccc3)C(N)=O)cn2)sc1C#N` [Compound 22], at H-PGDS, the “I[50]” value is 34.6 ± 2.1%. The term IC50 denotes the concentration needed to halve the response being measured. Turning to `O=C(c1ccc(-c2cccs2)nc1)N1CCC2(CCc3ccccc32)CC1` [Compound 7, (2,3-dihydrospiro[indene-1,4'-piperidin]-1'-yl)(6-(thiophen-2-yl)pyridin-3-yl)methanone], at H-PGDS, the IC50 amounted to 1970 ± 1200 nM and the inhibition at 50 µM turned out to be 91 ± 0.1%.

On to `O=C(NCc1ccccc1)c1ccc(-c2cccs2)nc1` [Compound 5, N-benzyl-6-(thiophen-2-yl)nicotinamide], for which, at H-PGDS, the IC50 amounted to 597 ± 1200 nM and the inhibition at 50 µM was 99.5 ± 0.8%. For `O=C(c1ccc(-c2cccs2)nc1)N1CCC(n2c(=O)[nH]c3ccccc32)CC1` [Compound 11, 1-(1-(6-(thiophen-2-yl)nicotinoyl)piperidin-4-yl)-1H-benzo[d]imidazol-2(3H)-one], at H-PGDS, the IC50 amounted to 1220 ± 1400 nM and the inhibition at 50 µM stood at 90.4 ± 0.7%. For the compound `NC(=O)[C@H](Cc1ccccc1)NC(=O)c1ccc(-c2sccc2Cl)nc1` [Compound 19], at H-PGDS, the IC50 was determined as 3200 ± 1600 nM and the inhibition at 50 µM is 94.8 ± 2.4%. Consider `CC(=O)c1ccc(-c2ccc(C(=O)N[C@@H](Cc3ccccc3)C(N)=O)cn2)s1` [Compound 18], for which, on H-PGDS, it took 5100 ± 1100 nM to reach half-maximal inhibition (IC50) and the inhibition at 50 µM was 65.5 ± 7.7%. For the compound `Cc1csc(-c2ccc(C(=O)N[C@@H](C)c3ccc4ccccc4c3)cn2)c1` [Compound 25], at H-PGDS, 180 nM corresponded to half-maximal inhibition (IC50) and the inhibition at 50 µM was found to be 96.9 ± 1%. In the same order, the values of `NC(=O)[C@H](Cc1ccccc1)NC(=O)c1ccc(-c2ccc(Cl)s2)nc1` [Compound 16] are 1400 ± 1300 nM and 89.4 ± 4.7%. Take `O=C(O)c1ccc(CNC(=O)c2ccc(-c3cccs3)nc2)cc1` [Compound 9, 4-((6-(thiophen-2-yl)nicotinamido)methyl)benzoic acid]: on H-PGDS, half-maximal inhibition (IC50) required 660 ± 1100 nM and the inhibition at 50 µM was 98.3 ± 1.1%. As to `CC(NC(=O)C(Cc1ccccc1)NC(=O)c1ccc(-c2cccs2)nc1)C(N)=O` (stereo not drawn) [Compound 24], at H-PGDS, inhibition was half-maximal at 860 ± 1200 nM (IC50) and the inhibition at 50 µM stood at 94.6 ± 0.3%. Take `NC(=O)[C@H](Cc1ccccc1)NC(=O)c1ccc(-c2ccc(C=O)s2)nc1` [Compound 14]: at H-PGDS, the IC50 is 1700 ± 1800 nM and the inhibition at 50 µM was 83.4 ± 1.5%. On to `NC(=O)[C@H](Cc1ccccc1)NC(=O)c1ccc(-c2ccc(C(=O)O)s2)nc1` [Compound 15], for which the “I[50]” value on H-PGDS was found to be 19.4 ± 1.4%. For `Cc1ccsc1-c1ccc(C(=O)N[C@@H](Cc2ccccc2)C(N)=O)cn1` [Compound 23], at H-PGDS, the IC50 amounted to 1870 ± 1100 nM and the inhibition at 50 µM is 91.6 ± 0.8%. As for `O=C(c1ccc(-c2cccs2)nc1)N1CCC(N2C(=O)OCc3ccccc32)CC1` [Compound 13, 1-(1-(6-(thiophen-2-yl)nicotinoyl)piperidin-4-yl)-1H-benzo[d][1,3]oxazin-2(4H)-one], at H-PGDS, the midpoint of inhibition, the IC50, lay at 3400 ± 1400 nM and the “I[50]” value is recorded as 87.9 ± 1.1%.

For the compound `c1ccc(C(OC2CCN(CCCc3nn[nH]n3)CC2)c2ccccc2)cc1` [Compound 1, reference compound], in series [1], the “differential effect in inhibition of PGD2 versus PGE2, 6-keto PGF1α or TXB2 (selectivity)” value is reported as “no differential effect”. Besides, the “A23187-inducible PGD2 production” value in series [2] is “very modest activity”. Further, the BMM cell viability result with BMM was “modest but significant effects”. For the same compound, the MEG-01S cell viability result in the series with MEG-01S is listed as “little effect”. For the compound `Cc1csc(-c2ccc(C(=O)N[C@@H](Cc3ccccc3)C(N)=O)cn2)c1` [Compound 21], at H-PGDS, the IC50 is 380 ± 1100 nM and the inhibition at 50 µM was determined as 97.4 ± 0.8%. Turning to `C[C@H](NC(=O)c1ccc(-c2cccs2)nc1)c1ccc2ccccc2c1` [Compound 12, (S)-N-(1-(naphthalen-2-yl)ethyl)-6-(thiophen-2-yl)nicotinamide], at H-PGDS, inhibition was half-maximal at 86 nM (IC50) and the inhibition at 50 µM is 99.8 ± 0.3%. For `Cc1ccc(-c2ccc(C(=O)N[C@@H](Cc3ccccc3)C(N)=O)cn2)s1` [Compound 17], at H-PGDS, 2000 ± 1100 nM corresponded to half-maximal inhibition (IC50) and the inhibition at 50 µM is 95 ± 1.1%.

For the compound `O=C(NC(c1ccccc1)c1ccccc1)c1ccc(-c2cccs2)nc1` [Compound 4, N-benzhydryl-6-(thiophen-2-yl)nicotinamide], the inhibition at 50 µM on H-PGDS is 28.5%. For `CS(=O)(=O)N1CC2(CCN(C(=O)c3ccc(-c4cccs4)nc3)CC2)c2ccccc21` [Compound 10, (1-(methylsulfonyl)spiro[indoline-3,4'-piperidin]-1'-yl)(6-(thiophen-2-yl)pyridin-3-yl)methanone], at H-PGDS, the 50% inhibitory concentration (IC50) was found to be 1230 ± 1100 nM and the inhibition at 50 µM worked out at 90.4 ± 0.5%.
